Reference: PubChem BioAssay AID330 (DTP/NCI, 2004)
Where “and” joins values, the source holds several entries; their conditions need not be identical. Identical values can stand only once. Inconclusive results and toxic doses are left out.

Tested on: P388 leukemia ip, CD2F1 mice, survival T/C
Assay: NCI In Vivo Anticancer Drug Screen. Data for tumor model P388 Leukemia (intraperitoneal) in CD2F1 (CDF1) mice
Conditions: endpoint: median survival time, higher = longer survival
How it was run: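 Mice carrying the transplanted tumor received test compound or vehicle. Survival was recorded in each group, and the value is the treated-group measurement divided by that of the vehicle-treated control group.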

COc1cccc2c1C(=O)c1c(O)c3c(c(O)c1C2=O)CC(O)(C(=O)CO)CC3OC1CC(N)C(O)C(C)O1 (configuration not stated)
T/C (dose: 0.03 mg/kg/injection, schedule: Q04DX003 (ip), vehicle: other): 104 % of control
T/C (dose: 0.05 mg/kg/injection, schedule: Q04DX003 (ip), vehicle: other): 104 % of control
T/C (dose: 0.05 mg/kg/injection, schedule: Q04DX003 (ip), vehicle: saline): 110 % of control
T/C (dose: 0.08 mg/kg/injection, schedule: Q04DX003 (ip), vehicle: other): 115 % of control
T/C (dose: 0.1 mg/kg/injection, schedule: Q04DX003 (ip), vehicle: other): 98 % of control
T/C (dose: 0.12 mg/kg/injection, schedule: Q04DX003 (ip), vehicle: other): 122 % of control
T/C (dose: 0.3 mg/kg/injection, schedule: Q04DX003 (ip), vehicle: other): 112 % of control
T/C (dose: 0.38 mg/kg/injection, schedule: Q01DX009 (ip), vehicle: water): 150 % of control
T/C (dose: 0.5 mg/kg/injection, schedule: Q04DX003 (ip), vehicle: other): 100 % of control
T/C (dose: 0.6 mg/kg/injection, schedule: Q04DX003 (ip), vehicle: saline): 154 % of control
T/C (dose: 0.75 mg/kg/injection, schedule: Q01DX009 (ip), vehicle: water): 159 % of control
T/C (dose: 1.0 mg/kg/injection, schedule: Q04DX003 (ip), vehicle: other): 100 % of control
T/C (dose: 1.0 mg/kg/injection, schedule: Q04DX003 (ip), vehicle: saline): 110 % of control and 106 % of control
T/C (dose: 1.13 mg/kg/injection, schedule: Q04DX003 (ip), vehicle: water): 120 % of control
T/C (dose: 1.3 mg/kg/injection, schedule: Q04DX003 (ip), vehicle: other): 152 % of control
T/C (dose: 1.3 mg/kg/injection, schedule: Q04DX003 (ip), vehicle: saline): 156 % of control
T/C (dose: 1.5 mg/kg/injection, schedule: Q01DX009 (ip), vehicle: water): 165 % of control
T/C (dose: 1.56 mg/kg/injection, schedule: Q04DX003 (ip), vehicle: saline): 163 % of control
T/C (dose: 1.9 mg/kg/injection, schedule: Q04DX003 (ip), vehicle: other): 153 % of control
T/C (dose: 1.9 mg/kg/injection, schedule: Q04DX003 (ip), vehicle: saline): 156 % of control
T/C (dose: 2.0 mg/kg/injection, schedule: Q04DX003 (ip), vehicle: other): 97 % of control
T/C (dose: 2.0 mg/kg/injection, schedule: Q04DX003 (ip), vehicle: saline): 113 % of control and 116 % of control
T/C (dose: 2.25 mg/kg/injection, schedule: Q04DX003 (ip), vehicle: water): 121 % of control
T/C (dose: 2.8 mg/kg/injection, schedule: Q04DX003 (ip), vehicle: other): 169 % of control
T/C (dose: 2.8 mg/kg/injection, schedule: Q04DX003 (ip), vehicle: saline): 182 % of control
T/C (dose: 2.9 mg/kg/injection, schedule: Q01DX009 (ip), vehicle: saline): 104 % of control
T/C (dose: 3.0 mg/kg/injection, schedule: Q01DX009 (ip), vehicle: water): 158 % of control
T/C (dose: 3.0 mg/kg/injection, schedule: Q04DX003 (ip), vehicle: water): 114 % of control
T/C (dose: 3.12 mg/kg/injection, schedule: Q04DX003 (ip), vehicle: saline): 170 % of control
T/C (dose: 3.13 mg/kg/injection, schedule: Q01DX009 (ip), vehicle: water): 163 % of control
T/C (dose: 3.13 mg/kg/injection, schedule: Q04DX003 (ip), vehicle: other): 118 % of control
T/C (dose: 4.0 mg/kg/injection, schedule: Q04DX003 (ip), vehicle: other): 115 % of control
T/C (dose: 4.0 mg/kg/injection, schedule: Q04DX003 (ip), vehicle: saline): 119 % of control
T/C (dose: 4.2 mg/kg/injection, schedule: Q04DX003 (ip), vehicle: other): 179 % of control
T/C (dose: 4.2 mg/kg/injection, schedule: Q04DX003 (ip), vehicle: saline): 180 % of control
T/C (dose: 5.8 mg/kg/injection, schedule: Q01DX009 (ip), vehicle: saline): 124 % of control
T/C (dose: 6.0 mg/kg/injection, schedule: Q01DX009 (ip), vehicle: water): 183 % of control
T/C (dose: 6.25 mg/kg/injection, schedule: Q01DX009 (ip), vehicle: water): 200 % of control
T/C (dose: 6.25 mg/kg/injection, schedule: Q04DX003 (ip), vehicle: other): 120 % of control
T/C (dose: 6.25 mg/kg/injection, schedule: Q04DX003 (ip), vehicle: saline): 170 % of control
T/C (dose: 6.3 mg/kg/injection, schedule: Q04DX003 (ip), vehicle: other): 179 % of control
T/C (dose: 6.3 mg/kg/injection, schedule: Q04DX003 (ip), vehicle: saline): 168 % of control
T/C (dose: 7.5 mg/kg/injection, schedule: Q04DX003 (ip), vehicle: clinical formulation): 161 % of control
T/C (dose: 8.0 mg/kg/injection, schedule: Q04DX003 (ip), vehicle: saline): 109 % of control
T/C (dose: 9.0 mg/kg/injection, schedule: Q04DX003 (ip), vehicle: water): 121 % of control
T/C (dose: 9.5 mg/kg/injection, schedule: Q04DX003 (ip), vehicle: other): 179 % of control
T/C (dose: 9.5 mg/kg/injection, schedule: Q04DX003 (ip), vehicle: saline): 208 % of control
T/C (dose: 10.0 mg/kg/injection, schedule: Q04DX003 (ip), vehicle: water): 112 % of control
T/C (dose: 12.0 mg/kg/injection, schedule: Q01DX009 (ip), vehicle: water): 204 % of control
T/C (dose: 12.0 mg/kg/injection, schedule: Q04DX003 (ip), vehicle: water): 116 % of control
T/C (dose: 12.5 mg/kg/injection, schedule: Q01DX009 (ip), vehicle: water): 229 % of control
T/C (dose: 14.2 mg/kg/injection, schedule: Q04DX003 (ip), vehicle: other): 198 % of control
T/C (dose: 14.2 mg/kg/injection, schedule: Q04DX003 (ip), vehicle: saline): 193 % of control
T/C (dose: 15.0 mg/kg/injection, schedule: Q04DX003 (ip), vehicle: clinical formulation): 152 % of control
T/C (dose: 16.0 mg/kg/injection, schedule: Q04DX003 (ip), vehicle: saline): 119 % of control
T/C (dose: 21.3 mg/kg/injection, schedule: Q04DX003 (ip), vehicle: other): 207 % of control
T/C (dose: 21.3 mg/kg/injection, schedule: Q04DX003 (ip), vehicle: saline): 86 % of control
T/C (dose: 22.5 mg/kg/injection, schedule: Q04DX003 (ip), vehicle: water): 109 % of control and 115 % of control
T/C (dose: 23.4 mg/kg/injection, schedule: Q01DX009 (ip), vehicle: saline): 123 % of control and 217 % of control
T/C (dose: 25.0 mg/kg/injection, schedule: Q01DX009 (ip), vehicle: water): 220 % of control
T/C (dose: 25.0 mg/kg/injection, schedule: Q04DX003 (ip), vehicle: saline): 98 % of control
T/C (dose: 32.0 mg/kg/injection, schedule: Q04DX003 (ip), vehicle: other): 160 % of control
T/C (dose: 32.0 mg/kg/injection, schedule: Q04DX003 (ip), vehicle: saline): 172 % of control
T/C (dose: 36.0 mg/kg/injection, schedule: Q04DX003 (ip), vehicle: water): 163 % of control
T/C (dose: 44.0 mg/kg/injection, schedule: Q04DX003 (ip), vehicle: water): 110 % of control
T/C (dose: 45.0 mg/kg/injection, schedule: Q04DX003 (ip), vehicle: water): 124 % of control
T/C (dose: 48.0 mg/kg/injection, schedule: Q04DX003 (ip), vehicle: other): 87 % of control
T/C (dose: 48.0 mg/kg/injection, schedule: Q04DX003 (ip), vehicle: water): 175 % of control and 294 % of control
T/C (dose: 50.0 mg/kg/injection, schedule: Q01DX009 (ip), vehicle: water): 117 % of control
T/C (dose: 50.0 mg/kg/injection, schedule: Q04DX003 (ip), vehicle: other): 161 % of control
T/C (dose: 64.0 mg/kg/injection, schedule: Q04DX003 (ip), vehicle: saline): 167 % of control and 153 % of control
T/C (dose: 72.0 mg/kg/injection, schedule: Q04DX003 (ip), vehicle: other): 93 % of control
T/C (dose: 72.0 mg/kg/injection, schedule: Q04DX003 (ip), vehicle: water): 196 % of control
T/C (dose: 80.0 mg/kg/injection, schedule: Q04DX003 (ip), vehicle: water): 118 % of control
T/C (dose: 90.0 mg/kg/injection, schedule: Q04DX003 (ip), vehicle: water): 159 % of control and 174 % of control
T/C (dose: 108.0 mg/kg/injection, schedule: Q04DX003 (ip), vehicle: other): 88 % of control
T/C (dose: 108.0 mg/kg/injection, schedule: Q04DX003 (ip), vehicle: water): 163 % of control
T/C (dose: 128.0 mg/kg/injection, schedule: Q04DX003 (ip), vehicle: other): 182 % of control
T/C (dose: 128.0 mg/kg/injection, schedule: Q04DX003 (ip), vehicle: saline): 204 % of control and 184 % of control
T/C (dose: 160.0 mg/kg/injection, schedule: Q04DX003 (ip), vehicle: water): 95 % of control
T/C (dose: 180.0 mg/kg/injection, schedule: Q04DX003 (ip), vehicle: water): 168 % of control
T/C (dose: 256.0 mg/kg/injection, schedule: Q04DX003 (ip), vehicle: other): 175 % of control
T/C (dose: 256.0 mg/kg/injection, schedule: Q04DX003 (ip), vehicle: saline): 110 % of control and 213 % of control
T/C (dose: 267.0 mg/kg/injection, schedule: Q04DX003 (ip), vehicle: water): 109 % of control
T/C (dose: 360.0 mg/kg/injection, schedule: Q04DX003 (ip), vehicle: water): 97 % of control
T/C (dose: 400.0 mg/kg/injection, schedule: Q04DX003 (ip), vehicle: water): 99 % of control
T/C (dose: 512.0 mg/kg/injection, schedule: Q04DX003 (ip), vehicle: saline): 90 % of control
